Assay results from patent US20100226597A1, “BORTEZOMIB AND PROCESS FOR PRODUCING SAME” (DR. REDDY'S LABORATORIES LIMITED, priority 2007, published 2010).
“Also recorded” adds a separate entry of the source.

What was measured:
[1] = Stability study of Bortezomib stored under general storage conditions (sealed polymeric bag, 25° C. and 60% RH), purity by HPLC; type: physicochemical
Procedure: (§1) HPLC measurements of Bortezomib samples for chemical purity were performed using Waters system, equipped with Waters symmetry shield RP-18, 250X4.6 mm ID, 5 μm, particle size and a UV detector operated on 270 nm. Analyses were performed using the following mobile phase, at flow rate of 1.0 ml/minute, run time 55 minutes. Mobile phase A: Mix 700 ml water, 300 ml Acetonitrile and 1 ml formic acid, filter and degas. Mobile phase B: Mix 800 ml Acetonitrile, 200 ml water and 1 ml formic acid, filter and degas. Elution: Gradient program

[2] = Stability study of Bortezomib in the exemplary storage system of the invention (two polybags with external desiccant), purity by HPLC; conditions: for Initial purity: % area by HPLC
Procedure: Two different samples of Bortezomib were stored at a storage condition of 2-8° C. and 25° C., 60% relative humidity (RH) in a storage system (packed in one Polybags having a thickness about 0.10 mm followed by repacking in another polybag having thickness of about 0.10 mm and containing external desiccant). A small quantity was taken from each sample after 15 days, 1 month (30th day), 2 months (60th day) and 3 months (90th day) and the purity was checked by HPLC and compared to the original HPLC chromatogram of each sample (before starting the storage period). The chemical purity of each sample was obtained as % area by the HPLC chromatogram and compared to the initial purity value (before starting the storage period).
as §1

[3] = Stability study of aqueous solution of Bortezomib in basic medium (pH ~10.5), purity by HPLC
Procedure: A small quantity was taken from solution after 1 hours, 2 hours and 3 hours and the purity was checked by HPLC and compared to the original HPLC chromatogram of initial sample (immediately after adjusting the pH). The purity of each sample was obtained as % area by the HPLC chromatogram and compared to the initial purity value.
as §1

[4] = 7th day, general storage conditions
[5] = 15th day, general storage conditions
[6] = 30th day, general storage conditions
[7] = initial, general storage conditions
[8] = stored at 2-8° C. in packaging of the invention, sample from methanol/water (Form A)
[9] = stored at 25° C. and 60% RH in packaging of the invention, sample from ethylacetate
[10] = after 1 hour, aqueous solution, pH ~10.5, 25 to 35° C.
[11] = after 2 hours, aqueous solution, pH ~10.5, 25 to 35° C.
[12] = after 3 hours, aqueous solution, pH ~10.5, 25 to 35° C.
[13] = initial, aqueous solution, pH ~10.5, 25 to 35° C.

Compound: CC(C)C[C@H](NC(=O)[C@H](Cc1ccccc1)NC(=O)c1cnccn1)B(O)O [Bortezomib, [(1R)-3-methyl-1-[[(2S)-1-oxo-3-phenyl-2-[(pyrazinylcarbonyl)amino]propyl]amino]butyl]boronic acid]
- Impurity-a content on 7th day [1, 4]: 0.06%
- Impurity-b (RR and SS diastereomers) content on 7th day [1, 4]: 0.33%
- Bortezomib purity by HPLC, Purity on 7th day ([1]; 7th day, general storage conditions, sample from ethylacetate): 99.34%
- Impurity-a content on 15th day [1, 5]: 0.08%
- Impurity-b (RR and SS diastereomers) content on 15th day [1, 5]: 0.35%
- Bortezomib purity by HPLC, Purity on 15th day ([1]; 15th day, general storage conditions, sample from ethylacetate): 98.92%
- Impurity-a content on 30th day [1, 6]: 0.18%
- Impurity-b (RR and SS diastereomers) content on 30th day [1, 6]: 0.39%
- Bortezomib purity by HPLC, Purity on 30th day ([1]; 30th day, general storage conditions, sample from ethylacetate): 97.22%
- Impurity-a content, Initial [1, 7]: 0.06%
- Impurity-b (RR and SS diastereomers) content, Initial [1, 7]: 0.36%
- Bortezomib purity by HPLC, Initial purity ([1]; initial, general storage conditions, sample from ethylacetate): 99.49%
- Storage stability in words ([1]; sealed polymeric bag without desiccants, normal temperature): unstable; also recorded: substantial degradation of product
- Purity on 15th day [2, 8]: 99.59%
- Purity on 15th day [2, 9]: 99.56%
- Purity on 30th day [2, 8]: 99.59%
- Purity on 30th day [2, 9]: 99.60%
- Purity on 60th day [2, 8]: 99.65%
- Purity on 60th day [2, 9]: 99.63%
- Purity on 90th day [2, 8]: 99.66%
- Purity on 90th day [2, 9]: 99.54%
- Initial purity [2, 8]: 99.60%
- Initial purity [2, 9]: 99.58%
- Storage stability in words ([2]; packaging conditions of the invention, prolonged storage periods): can be stabilized while retaining its purity content over prolonged storage periods
- Chemical Purity by HPLC, After 1 hour [3, 10]: 98.24%
- Impurity-a content, After 1 hour [3, 10]: 0.8924%
- Impurity-b (RR and SS diastereomers) content, After 1 hour [3, 10]: 0.4005%
- Chemical Purity by HPLC, After 2 hour [3, 11]: 98.01%
- Impurity-a content, After 2 hour [3, 11]: 0.9587%
- Impurity-b (RR and SS diastereomers) content, After 2 hour [3, 11]: 0.4746%
- Chemical Purity by HPLC, After 3 hours [3, 12]: 97.77%
- Impurity-a content, After 3 hours [3, 12]: 1.0229%
- Impurity-b (RR and SS diastereomers) content, After 3 hours [3, 12]: 0.5418%
- Stability in aqueous basic solution in words ([3]; aqueous solution maintained under stirring in a basic medium): decrease the purity; also recorded: purity of the compound decreased continually
- Chemical Purity by HPLC, Initial ([3]; initial (immediately after adjusting the pH), aqueous solution, pH ~10.5 (2N NaOH), 25 to 35° C.): 98.61%
- Impurity-a content, Initial [3, 13]: 0.7899%
- Impurity-b (RR and SS diastereomers) content, Initial [3, 13]: 0.2991%
